# According to patent US7858825B2, “Acid and base stable diphenylmethanol derivatives and methods of use” (Colorado State University Research Foundation, priority 2007, dated 2010):
# How the values were obtained:
# [1] = Cleavage (deprotection) of the esters 4d and of trifluoroacetate 5a; format: physicochemical
# Source text: Thus, compounds of the invention enabled a wide range of organic reactions for the generation of libraries of MraY inhibitors in solution (Scheme III). Compounds of the invention, e.g., (2,6-dicholoro-4-methoxyphenyl)(2,4-dichlorophenyl)methanol, can also be used as linkers to immobilize carboxylic acids, amines, alcohols, as well as other functional groups which can, however, be cleaved by 20% TFA.
# The trifluoroacetate 5a was also stable under most acidic conditions tested in Table 1 and SiO2, but could easily be cleaved by aq NH3 in THF-MeOH within 3 h to regenerate 3d in quantitative yield (Scheme 2-2).
# The ester of 3d was dissolved in 20% TFA in CH2Cl2 (0.3 M) and kept for 1 h at rt. Volatiles were evaporated in vaccuo to provide the carboxylic acid and 5a. The carboxylic acid was separated from 5d by a silica gel plug (10:1, hexanes:EtOAc to 5:1, CHCl3:MeOH) or a back-extraction procedure [solvent system: EtOAc-water (for the extraction of 5d under a basic condition (NaHCO3), CHCl3-water (for the extraction of the carboxylic acid under an acidic condition (dil. HCl)].
# [2] = Stability and cleavage of linker 16 esters; format: physicochemical
# Protocol: One of the linkers of the invention, (2-chloro-4-methoxyphenyl)(2,4-dichlorophenyl)methanol 16 was used to immobilize carboxylic acids. The linker was stable under a Boc-deprotection conditions (TsOH.H2O/THF—CH2Cl2). In addition, unlike photolytic (350 nm, 72 h) or Pd-mediated or base-catalyzed cleavage of linkers, the esters of linker 16 was efficiently be cleaved via volatile acids such as 30% TFA/CH2Cl2 or HF.pyridine within 1 h. The progress of each step was conveniently be monitored by LC-MS after the treatment of such Brønsted acids followed by evaporation of volatiles.
smiles,measurement,setting,value
"COc1cc(Cl)c(C(OC(=O)C(F)(F)F)c2ccc(Cl)cc2Cl)c(Cl)c1 (stereo not shown) [5a, (2,6-dichloro-4-methoxyphenyl)(2,4-dichlorophenyl)methyl 2,2,2-trifluoroacetate]",time for cleavage to regenerate 3d,[1]; aq NH3 in THF-MeOH,≤ 3 h
same,stability under acidic conditions,[1]; most acidic conditions tested in Table 1 and SiO2,stable
"COc1ccc(C(O)c2ccc(Cl)cc2Cl)c(Cl)c1 (stereo not shown) [compound 16, (2-chloro-4-methoxyphenyl)(2,4-dichlorophenyl)methanol]",time for cleavage of the esters of the linker,[2]; 30% TFA/CH2Cl2 or HF.pyridine,≤ 1 h
same,stability of linker,[2]; Boc-deprotection conditions (TsOH.H2O/THF—CH2Cl2),stable
